The values below come from US8889744B2, “Bis-trifluoromethyl honokiol analogs and their use in treating cancers” (priority 2009, dated 2014).

Series [1] deals with A375 human melanoma cells. The experiment in a line: Human melanoma xenograft A375 in nude mice. In kind it is in vivo. To be noted: 120 mg/kg daily intraperitoneal, FIG. 4. Here is the method:
The compound was evaluated in conjunction with control, and with a different honokiol analogue, the bis-dichloroacetate. A375 human melanoma cells were injected into nude mice (3 mice pre treatment group) and received vehicle (intralipid) or 120 mg/kg honokiol bisdichloroacetate ester (honokiol DCA) or hexafluoro, via daily intraperitoneal administration. The volume of the tumors was calculated by the formula volume=(width squared times length) 0.52, where width is the shortest dimension.
On the technique in general: A xenograft is tissue or cells of one species grown in another, often human tumour cells in immunodeficient mice.

In series [2] the test system is primary human endothelial cells. To be noted: cited from earlier work.
The next series deals with angiosarcoma. To be noted: nude mice; cited from earlier work.
For series [3], the system named is SVR cells. To be noted: in vitro; cited from earlier work.
The test system of the next series is SVR angiosarcoma cells. Description: In vivo tumorigenesis, SVR tumor model in mice. Here is the method: SVR (5×10^5) cells were injected into the flank of 6-week-old nude male mice obtained from Charles River Breeding Laboratories. When tumors became visible at approximately 1 week after inoculation, mice received 3 mg/day hexafluoro-honokiol, tacrolomis, or vehicle control suspended in 20% Intralipid (Baxter Healthcare, Deerfield, Ill.) in a total volume of 0.3 ml intraperitoneally. Tumor volume was measured using the formula (width^2×length)×0.52 where width represents the shortest dimension.
The efficacy of the hexafluoro-honokiol compound was then tested in an SVR tumor model in mice, and compared to that of a control and to Tacrolimis. The assay was performed according to the conditions in J Biol Chem. 2003 Sep. 12; 278(37):35501-7, the contents of which are hereby incorporated by reference.
Nude mice injected with 0.5 million SVR angiosarcoma cells were treated with hexafluoro-honokiol (120 mg/kg), Tacrolimis, or control (Cancer Res. 2009 Jun. 1; 69(11):4621-8), with a total of 4 mice in each group. […] The degree of inhibition with hexafluoro-honokiol was more marked than with the same dose of Tacrolimis.

The subject of series [4] is SVR cells. Description: SVR tumor volume, SVR cells grown in DMEM with 0.5% or 10% FBS. The series is classed as in vivo, mice. To be noted: FIG. 3. The method, then:
FIG. 3 is a chart showing the effect of hexafluoro-honokiol on SVR tumor volume […] over time (days) in mice, as compared to control, where the SVR cells were grown in 0.5 and 10% serum Dulbecco's minimal essential media (DMEM).
Having shown that hexafluoro-honokiol appears to show better results than tacrolomis, a further experiment was conducted using SVR cells grown in Dulbecco's Modified Eagle Media (DMEM) supplemented with 0.5% or 10% fetal bovine serum (FBS), according to the techniques described in Bai, et al., J. Biol. Chem., Vol. 278, Issue 37, 35501-35507, Sep. 12, 2003.

The next series concerns Rac-GTP (active Rac). The experiment in a line: Rac activation pull-down assay (GST-PBD, Western blot). The series is classed as cell-based. The note with it: DAOY medulloblastoma cells, FIG. 1. The method, then: […] Cells were lysed with ice-cold lysis buffer, containing 25 mM HEPES pH 7.5, 150 mM NaCl, 1% NP-40, 10 mM MgCl2, 1 mM EDTA, 10% glycerol and protease inhibitors. A sample was kept for total Rac and Ras level analysis.
The remaining lysate was used for the pull-down (Western Blot) assay to isolate the GTP-loaded forms of Rac or Ras using the p21-binding domain of PAK1 fused to glutathione S-transferase (GST-PBD) (Glaven et al., J. Biol. Chem., 274, 2279-2285 (1999)). The GST-PBD fusion protein was prepared as previously described (Abassi, Y. and Vuori, K. EMBO J. 21, 4571-4582 (2002)).
Activated (GTP-bound) Rac was affinity-precipitated with p21-activated kinase-1 protein binding domain peptide, which binds only to Rac-GTP and not Rac-GDP. p21-Activated kinase-1 protein binding domain-agarose (7.5 μg/mg cell lysate) was added, and the reaction mixture was gently rocked at 4° C. for 60 min. The agarose beads were collected by pulsing for 5 s in a microcentrifuge at 14,000×g, and the beads were washed three times with 0.5 ml of lysis buffer.
The agarose beads were resuspended in 40 μl of 1×SDS sample buffer and boiled for 5 min. The supernatant was separated by SDS-PAGE on a 12% gel, and the proteins were transferred to nitrocellulose membrane. […] After incubation with the secondary antibody, Rac and Ras were detected by enhanced chemiluminescence.
(In general: A western blot detects proteins with antibodies after separation by electrophoresis.)

Entries after “also recorded” stand apart in the source; their conditions may differ.

Turning to `C=CCc1ccc(OC(=O)C(Cl)Cl)c(-c2ccc(OC(=O)C(Cl)Cl)c(CC=C)c2)c1` [honokiol bis-dichloroacetate, honokiol bisdichloroacetate ester, reference compound], in series [1], the “efficacy of the two compounds compared with each other” value is on record as “comparable efficacy” and the “tumor volume versus control” value is listed as “significantly better than control”.

As to honokiol, in series [2], the “inhibition of primary human endothelial cells compared with fibroblasts” value is on record as “preferential inhibition”. In addition, the efficacy against angiosarcoma result with angiosarcoma was “highly effective”. For the same molecule, the “anti-proliferative activity against SVR cells” value in the series with SVR cells [3] is listed as “potent anti-proliferative activity”.

Turning to `C=CCc1cc(C(c2ccc(O)c(CC=C)c2)(C(F)(F)F)C(F)(F)F)ccc1O` [hexafluoro-honokiol, 2,2-bis(3-allyl-4-hydroxy-phenyl)-1,1,1,3,3,3-hexafluoropropane], in the series on SVR angiosarcoma cells (3 mg/day intraperitoneally in 20% Intralipid), the “weight loss or other toxicities” value was “No weight loss or other toxicities were observed”. The “tumor volume versus control” value in the series on SVR angiosarcoma cells (120 mg/kg (3 mg/day) intraperitoneally, FIG. 2) is recorded as “significantly different at all time points”. Besides, the “degree of inhibition of tumor volume compared with Tacrolimis” value in the series with SVR angiosarcoma cells (same dose, FIG. 2) is “more marked”. In addition, in series [1], the “efficacy of the two compounds compared with each other” value is reported as “comparable efficacy” and the “tumor volume versus control” value is “significantly better than control”. In addition, the “tumor volume over time versus control” value with SVR cells [4] was “significantly better than control”. In addition, in the series on Rac-GTP (active Rac), the “levels of total Rac” value is “not decreased”. Further, in the series on Rac-GTP (active Rac) (with PDGF-BB), the “levels of Rac-GTP (active Rac)” value is “significantly decreased; also recorded: disappearance of RAC-GTP”.
